# Results taken from US11573241B2, “Total cellular iron as a marker of cancer stem cells and uses thereof” (Institut National de la Sante et de la Recherche Medicale …, priority 2016, dated 2023).
# Where a SMILES comes first, the peptide text is derived from it. The star is where a group is joined. Cbz = O=C(OCc1ccccc1)*; CH2F = FC*
# B1: OSM: cytokine oncostatin M, implicated in inducing EMT (protein, UniProt P13725 26-221, looked up)
# Oncostatin-M: AAIGSCSKEYRVLLGQLQKQTDLMQDTSRLLDPYIRIQGLDVPKLREHCRERPGAFPSEETLRGLGRRGFLQTLNATLGCVLHRLADLEQRLPKAQDLERSGLNIEDLEKLQMARPNILGLRNNIYCMAQLLDNSDTAEPTKAGRGASQPPTPTPASDAFQRKLEGCRFLHGYHRFMHSVGRVFSKWGESPNRSRR
# Assays:
# HMLER CD24^low cells [1] = assay: Immunoblotting of iron homeostasis regulatory proteins; format: cell-based, human; conditions: 24 h
# [2] = system: cells from treated PDX 1 and 2; assay: Limiting dilution assay, tumor-seeding capacity (ELDA); format: in vivo, NOD/SCID mice; conditions: re-implantation into secondary mice
# Source text: Limiting dilution assay. Cells from 4-week treated mice were re-implanted into one to four secondary NOD/SCID mice with injection of 10, 50, 500 or 5000 cells for each treated tumor to functionally evaluate the proportion of residual CSCs in each treatment group (Unt., Doc, Sal, AM5) for the PDX 1 and 2. Each mouse that developed a tumor reaching a size of 10 mm was considered as a tumor-bearing mouse.
# Estimation of number of CSCs in vivo. The number of mammary gland outgrowths obtained in a fat pad after cell re-implantation is currently used to evaluate the number of stem cells able to repopulate this fat pad. It is based on self-renewal and differentiation abilities, two hallmarks of stem cells. In the same manner, estimation of the number of CSCs can be obtained from tumor outgrowth data collected after limited dilution re-implantation of each group of treatments, based on tumor-initiating capacities of CSCs. For calculation, an online tool is available using Extreme Limiting Dilution Analysis (ELDA) (http://bioinf.wehi.edu.au/software/elda/) for limiting dilution analysis based on the Poisson single-hit model according to the number of outgrowths observed and the number of pat pad re-implanted for each cell dilution.
# [3] = system: patient-derived xenografts (PDX 1 and 2); format: in vivo, NOD/SCID mice; conditions: intra-peritoneal, 4 weeks
# Source text: Patient derived xenografts (PDXs). PDXs were established as previously described in Charafe-Jauffret et al., Cancer Res. 73, 7290-7300 (2013) from tissue samples collected prospectively at the Institut Paoli-Calmettes (IPC). Samples of human origin and associated data were obtained from the IPC/CRCM Tumor Bank that operates under authorization #AC-2007-33 granted by the French Ministry of Higher Education and Research. Before scientific use of samples and data, patients were appropriately informed and asked to consent in writing, in compliance with French and European regulations. The project was approved by the IPC Institutional Review Board. Cells from 2 different patient-derived xenografts (PDX 1 and 2) were transplanted orthotopically into fat pads of 4-week-old female non-obese diabetic/severe combined immunodeficient (NOD/SCID) mice (NOD.CB17-Prkdcscid/J, Charles River France) after mechanical treatment and enzymatic digestion using collagenase/hyaluronidase (StemCell Technologies) to generate single-cell suspension suitable for implantation in vivo. PDXs were primarily established as previously described in Caraft-Jauffret et al., and evaluated for ALDEFLUOR-positive CSCs. We injected single cancer cells into fat pads of NOD/SCID mice and monitored tumor growth. When tumor size reached approximately 150 mm^3, Sal and AM5 treatments were performed as indicated above for FIGS. 14 and 15. Tumor growth was compared with that of docetaxel and placebo-treated controls. After 4 weeks of treatment, the animals were sacrificed and the proportion of ALDEFLUOR-positive CSCs was measured in each residual tumor. All animal studies were approved by the French Ministry of Higher Education and Research (authorization number D130554) and ethical committee (number 14), of Aix-Marseille Université. No randomization was used and experimenters were blinded to drug treatments and tissue analyses.
# Aldefluor assay. The analysis was processed on single-cell suspension from the PDXs obtained as described above. The ALDEFLUOR Kit (Stemcell™ Technologies) was used to isolate the population with high aldehyde dehydrogenase enzymatic activity using an LSR2 cytometer (Becton Dickinson Biosciences), as previously described in Charafe-Jauffret et al. To eliminate cells of mouse origin from the PDXs, we used staining with an anti-H2Kd antibody (BD Biosciences, 1:200, 20 min on ice) followed by staining with a secondary antibody labeled with phycoerythrin (PE; Jackson Laboratories, 1:250, 20 min on ice).
# HMLER CD24^low cells [4] = assay: Annexin V/PI assay; format: cell-based, human; conditions: 48 h
# Method: (§1) Annexin V/PI assay. Cells were treated as indicated. After treatment, cell death was quantified using Annexin V-FITC/Propidium Iodide (PI) assay according to the manufacturer's protocol (FITC Annexin V Apoptosis Detection Kit II, 556570, BD Pharmingen™) and analyzed by a LSRFortessa™ flow cytometer (BD Bioscience, San Jose, Calif.). The data were processed using Cell Quest software (BD Biosciences).
# iCSCL-10A2 cells = assay: Annexin V/PI assay; format: cell-based; conditions: Sal or AM5 0.5 μM, 72 h
# Method: as §1
# HMLER cells = assay: Flow cytometry of CD44 and CD24 expression after TGF beta; format: cell-based, human
# Method: FIG. 11. […] Briefly, HMLER cells were treated as indicated with TGF beta in the presence or absence of transferrin. CD44 and CD24 expression were assessed by flow cytometry. CD44^+ indicates the percent of CD44^high/CD24^Low/− population gated.
# MCF-7 cells [5] = assay: Immunoblotting of EMT markers and ferritin after OSM; format: cell-based, human; conditions: OSM 100 ng/ml
# Method: FIG. 7. Knock down of ferritin expression interferes with the OSM-mediated induction of EMT in MCF-7 cells. left, Immunoblotting showing levels of EMT markers in MCF-7 cells treated or not with 100 ng/ml of OSM for 72 h. right Immunoblotting showing levels of ferritin and fibronectin proteins in MCF-7 cells transfected with siRNA control (scramble) or siRNA targeting specifically ferritin mRNA (FTH1) during 48 h and then the cells were incubated with OSM (100 ng/ml) for 48 h. Beta-tubulin is used as loading control. MCF-7 were transfected.
# Immunoblotting. Cells were treated as indicated, then washed twice with PBS and lysed with 2× Laemmli buffer. Cell extracts were heated at 95° C. for 5 min, sheared through a 26-gauge needle and quantified with a Nanodrop 2000 (Thermo Scientific). Protein lysates (˜100 μg) were resolved by SDS-PAGE electrophoresis and transferred onto PVDF membranes (Amersham). Membranes were blocked with 5% BSA, 0.1% Tween-20/TBS for 1 h. The blots were then probed with the relevant primary antibodies in 5% BSA, 0.1% Tween-20/TBS at 4° C. overnight with gentle agitation. Membranes were washed with 0.1% Tween-20/TBS for 30 min and were incubated with secondary antibodies for 1 h at RT. Antigens were detected by ECL (Amersham). Imaging was performed using a ChemiDoc™ XRS+ System (Biorad).
# MCF-7 cells [6] = assay: Flow cytometry of CD44 and CD24 expression after OSM; format: cell-based, human; conditions: OSM 100 ng/ml, 48 h
# Method: FIG. 8. Knock down of ferritin expression interferes with the OSM-mediated induction of CD44^highCD24^low/− in MCF-7 cells. MCF-7 were transfected with siRNA control or siRNA specifically targeting ferritin mRNA (FTH1) during 48 h and then the cells were incubated with OSM (100 ng/ml) for 48 h. a. Analysis of CD44 and CD24 expression by flow cytometry. Left panel, CSC indicates the percent of CD44^high/CD24^Low or negative (Low/−) population gated. Right panels, histogram representations of CD44 or CD24 expression (dark grey), or by the isotype control (light grey). b. Graphs representing the percent mean of CD44^high/CD24^Low/− population gated. c. Graphs representing the mean fluorescence intensity (IF) of CD24 and CD44, respectively. d. Quantification of the ALDH+ population in MCF-7 cells treated as indicated above, and measured by flow cytometry. Bars and error bars correspond to mean values and s.d. of two biological replicates, respectively. **P<0.01, ns, not significant, Student's t-test.
# Small interfering RNA transfection. Suitable small interfering RNAs (siRNA) were designed with the Qiagen RNA interference designer tool for specific down-regulation of FTH1. The sequence used for FTH1 was 5′-[…]-3′ (S100300251) targeting the sequence following 5′-[…]-3′ and a negative control siRNA for FTH1 (5′-[…]-3′, (S103089212). Subconfluent cells were transfected with siRNA in Opti-MEM using the Oligofectamine™ reagent (Invitrogen) for 48 h. Then, cells were treated with OSM (100 ng/mL for 48 h) prior to protein or RNA extraction and flow cytometry analysis for markers as indicated.
molecule,measurement,setting,value
CCCNC(=O)[C@H]1O[C@@H]1C(=O)N[C@H](C(=O)N1CCC[C@H]1C(=O)O)[C@@H](C)CC [CA-074],"ferritin degradation under AM5, cathepsin B inhibition",HMLER CD24^low cells [1],degradation was prevented
"CC(=O)O[C@@]12CO[C@@H]1C[C@H](O)[C@@]1(C)C(=O)[C@H](O)C3=C(C)[C@@H](OC(=O)[C@H](O)[C@@H](NC(=O)OC(C)(C)C)c4ccccc4)C[C@@](O)([C@@H](OC(=O)c4ccccc4)[C@H]21)C3(C)C [Doc, docetaxel, reference compound]",tumor-seeding capacity of tumor cells treated in vivo,[2],lower response than treatment with either AM5 or AM5+Doc
same,tumor growth,[3],less effective
"CC(=O)N[C@@H](CS)C(=O)O [NAC, N-acetyl-L-cysteine]",effect of co-treatment on cell death induced by Sal and AM5,HMLER CD24^low cells [4],partly prevented Sal and AM5 from killing these cells
COC(=O)C[C@H](NC(=O)[C@H](C)NC(=O)[C@@H](NC(=O)OCc1ccccc1)C(C)C)C(=O)CF [Z-VAD-FMK] (Cbz-Val-Ala-Asp(OMe)-CH2F),effect of inhibitor on cell death induced by Sal or AM5,iCSCL-10A2 cells,no effect on the cell death profiles
CCOC(=O)c1ccc(NC2CCCCC2)c(N)c1 [ferrostatin-1],effect of inhibitor on cell death induced by Sal or AM5,iCSCL-10A2 cells,partially prevented
CN1C(=O)C(Cc2c[nH]c3ccccc23)NC1=S (centres unmarked) [necrostatin-1],effect of inhibitor on cell death induced by Sal or AM5,iCSCL-10A2 cells,no effect on the cell death profiles
TGF-31: cytokine that increases the CD44^high/CD24^Low/− population in HMLER cells,percent of CD44^high/CD24^Low/− population,HMLER cells,21%
Transferrin: iron carrier protein taken up via transferrin receptor,effect on TGF-beta-mediated induction of CD44^highCD24^Low/−,HMLER cells; with TGF beta,potentiates the TGF-beta-mediated induction
B1,ferritin protein level,MCF-7 cells [5],increase in ferritin protein level
same,EMT marker protein levels,MCF-7 cells [5]; 72 h,"increase of two EMT markers Fibronectin and Snail, and the decrease of E-cad protein levels"
same,% of CD24^high population,MCF-7 cells [6],remains unchanged
same,% of CD44^high population,MCF-7 cells [6],76%
same,% of CD44^highCD24^Low/− CSC population,MCF-7 cells [6],4.84%
